These results are taken from US5089401A, “Method for the preparation of fructose-containing oligosaccharide” (Ensuiko Sugar Refining Co., Ltd., priority 1990, dated 1992).

One test has as its target T1, β-fructofuranosidase (Microbacterium saccharophilum, UniProt Q8VW87).
T1 construct: K-1 culture; crude supernatant or purified preparation
T1 sequence (Q8VW87 37-578): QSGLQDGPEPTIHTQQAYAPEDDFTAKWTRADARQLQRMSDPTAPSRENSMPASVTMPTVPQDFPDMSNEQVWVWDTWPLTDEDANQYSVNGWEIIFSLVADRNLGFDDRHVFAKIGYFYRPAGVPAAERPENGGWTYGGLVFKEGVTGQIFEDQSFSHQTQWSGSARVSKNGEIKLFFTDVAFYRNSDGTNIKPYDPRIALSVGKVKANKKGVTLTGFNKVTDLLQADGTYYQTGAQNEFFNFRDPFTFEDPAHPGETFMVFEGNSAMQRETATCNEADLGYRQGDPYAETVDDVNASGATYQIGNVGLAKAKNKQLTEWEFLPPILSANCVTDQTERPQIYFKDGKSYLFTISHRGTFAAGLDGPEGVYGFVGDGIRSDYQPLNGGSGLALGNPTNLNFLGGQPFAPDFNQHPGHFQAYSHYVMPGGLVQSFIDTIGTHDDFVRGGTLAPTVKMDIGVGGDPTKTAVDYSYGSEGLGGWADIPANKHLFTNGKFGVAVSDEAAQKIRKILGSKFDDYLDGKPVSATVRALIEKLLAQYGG
Nature of the test: decomposition of saccharides by the β-fructofuranosidase (substrate specificity). It is filed as biochemical, Arthrobacter sp. K-1.
Settings: not given
For the compound `OC[C@H]1O[C@@](CO)(OC[C@@]2(O[C@H]3O[C@H](CO)[C@@H](O)[C@H](O)[C@H]3O)O[C@H](CO)[C@@H](O)[C@@H]2O)[C@@H](O)[C@@H]1O` [1-kestose], the “activity of the enzyme in the decomposition of the saccharide” value (from here on “activity of the enzyme”) is recorded as “hardly exhibits activity”.
As for `OC[C@H]1O[C@@](CO)(O[C@H]2O[C@H](CO)[C@@H](O[C@H]3O[C@H](CO)[C@@H](O)[C@H](O)[C@H]3O)[C@H](O)[C@H]2O)[C@@H](O)[C@@H]1O` [elrose, maltosyl fructoside], the “activity of the enzyme” value was “active in the decomposition”.
Same read-out and setting: in the case of `OC[C@H]1O[C@@](CO)(OC[C@H]2O[C@](O)(CO)[C@@H](O)[C@@H]2O)[C@@H](O)[C@@H]1O` [levan biose] it was “hardly exhibits activity”; in that of `OC[C@H]1O[C@@](CO)(OC[C@H]2O[C@H](O[C@]3(CO)O[C@H](CO)[C@@H](O)[C@@H]3O)[C@H](O)[C@@H](O)[C@@H]2O)[C@@H](O)[C@@H]1O` [neokestose], “active in the decomposition”.
As for `OC[C@H]1O[C@@](CO)(OC[C@@]2(OC[C@@]3(O[C@H]4O[C@H](CO)[C@@H](O)[C@H](O)[C@H]4O)O[C@H](CO)[C@@H](O)[C@@H]3O)O[C@H](CO)[C@@H](O)[C@@H]2O)[C@@H](O)[C@@H]1O` [nistose], the “activity of the enzyme” value is on record as “hardly exhibits activity”.
Still for that read-out and setting: in the case of `OC[C@H]1O[C@H](OC[C@H]2O[C@H](O[C@]3(CO)O[C@H](CO)[C@@H](O)[C@@H]3O)[C@H](O)[C@@H](O)[C@@H]2O)[C@H](O)[C@@H](O)[C@H]1O` [raffinose] it was “active in the decomposition”; in that of `OC[C@H]1O[C@H](OC[C@H]2O[C@H](OC[C@H]3O[C@H](O[C@]4(CO)O[C@H](CO)[C@@H](O)[C@@H]4O)[C@H](O)[C@@H](O)[C@@H]3O)[C@H](O)[C@@H](O)[C@H]2O)[C@H](O)[C@@H](O)[C@H]1O` [stachyose], “active in the decomposition”.
Take `OC[C@H]1O[C@@](CO)(O[C@H]2O[C@H](CO)[C@@H](O)[C@H](O)[C@H]2O)[C@@H](O)[C@@H]1O` [sucrose]: the “activity of the enzyme” value is “active in the decomposition”.
In the case of `OC[C@H]1O[C@@](CO)(O[C@H]2OC[C@@H](O)[C@H](O)[C@H]2O)[C@@H](O)[C@@H]1O` [xylsucrose, O-β-D-fructofuranosyl-(2→1)-O-α-D-xylopyranoside], the “activity of the enzyme” value is reported as “active in the decomposition”.
Turning to inulobiose, the “activity of the enzyme” value is recorded as “hardly exhibits activity”.

For the next test, the target named is T1, β-fructofuranosidase.
Assay: not given
The format is biochemical, Arthrobacter sp. K-1.
Settings: not given
As to copper, the “inhibitive effect of the ion on the enzyme” value is “susceptible to the inhibitive effect”.
The same measure, in the same setting: in the case of mercury it was “susceptible to the inhibitive effect”; in that of silver, “susceptible to the inhibitive effect”; in that of zinc, “susceptible to the inhibitive effect”.

For a further test, the system named is bifidus bacteria.
Assay: not given
The following applies: cited from earlier work.
In the case of `OC[C@H]1O[C@@H](O[C@H]2[C@H](O)[C@@H](O)[C@@H](O[C@]3(CO)O[C@H](CO)[C@@H](O)[C@@H]3O)O[C@@H]2CO)[C@H](O)[C@@H](O)[C@H]1O` [lactosucrose, O-β-D-galactopyranosyl-(1→4)-O-α-D-glucopyranosyl-(1→2)-O-β-D-fructofuranoside], the “activity as a growth factor of bifidus bacteria” value is given as “has an activity as a growth factor of bifidus bacteria”.
